Here are results for four cell lines from the supplement of paper PMC10307832.

Common to all, as to test: relative viability (nuclei count vs DMSO), 5 days (fraction); higher = more cells survive
Compound in the assay “Crizotinib + Palbociclib”: C[C@@H](Oc1cc(-c2cnn(C3CCNCC3)c2)cnc1N)c1c(Cl)ccc(F)c1Cl [Crizotinib] + CC(=O)c1c(C)c2cnc(Nc3ccc(N4CCNCC4)cn3)nc2n(C2CCCC2)c1=O [Palbociclib] (partner 0.5 µM)
A digest of the protocol: (§1)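 Values are medians from duplicate plates. Each reflects relative viability, defined as the nuclei count of treated wells over that of vehicle wells. Lung cancer cell lines in 1536-well plates were pin-tool dosed one day after seeding with one drug alone or with a fixed anchor-drug dose plus five library-drug doses (not always all listed) in √10 steps, then fixed, stained and imaged at 4× after 5 days.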

Compound in the assay “Olaparib + Alpelisib”: O=C(c1cc(Cc2n[nH]c(=O)c3ccccc23)ccc1F)N1CCN(C(=O)C2CC2)CC1 [Olaparib] + Cc1nc(NC(=O)N2CCC[C@H]2C(N)=O)sc1-c1ccnc(C(C)(C)C(F)(F)F)c1 [Alpelisib] (partner 2 µM)
The gist of the method: as §1

Compound in the assay “Carfilzomib + Alpelisib”: CC(C)C[C@H](NC(=O)[C@H](CCc1ccccc1)NC(=O)CN1CCOCC1)C(=O)N[C@@H](Cc1ccccc1)C(=O)N[C@@H](CC(C)C)C(=O)[C@@]1(C)CO1 [Carfilzomib] + Cc1nc(NC(=O)N2CCC[C@H]2C(N)=O)sc1-c1ccnc(C(C)(C)C(F)(F)F)c1 [Alpelisib] (partner 2 µM)
The gist of the method:
as §1

Compound in the assay “Carfilzomib + Phenformin”: CC(C)C[C@H](NC(=O)[C@H](CCc1ccccc1)NC(=O)CN1CCOCC1)C(=O)N[C@@H](Cc1ccccc1)C(=O)N[C@@H](CC(C)C)C(=O)[C@@]1(C)CO1 [Carfilzomib] + N=C(N)NC(=N)NCCc1ccccc1 [Phenformin] (partner 250 µM)
The gist of the method: as §1

Consider LK-2, for which the relative viability with Crizotinib + Palbociclib (first compound 0.01 µM) came out at 0.65; with Crizotinib + Palbociclib (first compound 0.03162 µM), 0.691; with Crizotinib + Palbociclib (first compound 0.1 µM) it was 0.596; with Crizotinib + Palbociclib (first compound 0.3162 µM) it was 0.609; with Crizotinib + Palbociclib (first compound 1 µM), 0.534; with Olaparib + Alpelisib (first compound 0.08 µM), 1.07. Moreover, the relative viability with Olaparib + Alpelisib (first compound 0.253 µM) was determined as 1.03; with Olaparib + Alpelisib (first compound 2.53 µM), 1.25; with Olaparib + Alpelisib (first compound 8 µM) it was 0.945; with Carfilzomib + Alpelisib (first compound 0.003162 µM), 1.59; with Carfilzomib + Alpelisib (first compound 0.01 µM), 1.1; with Carfilzomib + Alpelisib (first compound 0.03162 µM), 0.263. Besides, the relative viability in the assay with Carfilzomib + Alpelisib (first compound 0.1 µM) amounted to 0.255; with Carfilzomib + Phenformin (first compound 0.001 µM) it was 0.628; in the assay with Carfilzomib + Phenformin (first compound 0.003162 µM), 0.584; with Carfilzomib + Phenformin (first compound 0.01 µM), 0.158; in the assay with Carfilzomib + Phenformin (first compound 0.03162 µM), 0.119; with Carfilzomib + Phenformin (first compound 0.1 µM), 0.182.

With H3255, the relative viability in the assay with Crizotinib + Palbociclib (first compound 0.01 µM) was 0.342; with Crizotinib + Palbociclib (first compound 0.03162 µM) it was 0.331; with Crizotinib + Palbociclib (first compound 0.1 µM), 0.327; with Crizotinib + Palbociclib (first compound 0.3162 µM), 0.28; in the assay with Crizotinib + Palbociclib (first compound 1 µM), 0.325; with Olaparib + Alpelisib (first compound 0.08 µM) it was 0.751. Besides, the relative viability with Olaparib + Alpelisib (first compound 0.253 µM) was determined as 0.752; with Olaparib + Alpelisib (first compound 2.53 µM) it was 0.652; with Olaparib + Alpelisib (first compound 8 µM), 0.647; with Carfilzomib + Alpelisib (first compound 0.001 µM), 0.749; with Carfilzomib + Alpelisib (first compound 0.003162 µM) it was 0.886; with Carfilzomib + Alpelisib (first compound 0.01 µM), 0.723. Also, the relative viability in the assay with Carfilzomib + Alpelisib (first compound 0.03162 µM) was found to be 0.494; with Carfilzomib + Alpelisib (first compound 0.1 µM), 0.154; with Carfilzomib + Phenformin (first compound 0.001 µM) it was 0.395; with Carfilzomib + Phenformin (first compound 0.003162 µM) it was 0.364; with Carfilzomib + Phenformin (first compound 0.01 µM), 0.441; with Carfilzomib + Phenformin (first compound 0.03162 µM) it was 0.354. For the same cell line, the relative viability in the assay with Carfilzomib + Phenformin (first compound 0.1 µM) was found to be 0.321.

With NCI-H1355, the relative viability stood at 0.415 with Crizotinib + Palbociclib (first compound 0.01 µM); 0.378 with Crizotinib + Palbociclib (first compound 0.03162 µM); 0.387 in the assay with Crizotinib + Palbociclib (first compound 0.1 µM); 0.406 in the assay with Crizotinib + Palbociclib (first compound 0.3162 µM); 0.406 in the assay with Crizotinib + Palbociclib (first compound 1 µM); 0.804 with Olaparib + Alpelisib (first compound 0.08 µM). Moreover, the relative viability was 0.716 with Olaparib + Alpelisib (first compound 0.253 µM); 0.825 with Olaparib + Alpelisib (first compound 2.53 µM); 0.798 with Olaparib + Alpelisib (first compound 8 µM); 0.753 with Carfilzomib + Alpelisib (first compound 0.001 µM); 0.767 with Carfilzomib + Alpelisib (first compound 0.003162 µM); 0.737 with Carfilzomib + Alpelisib (first compound 0.01 µM). Also, the relative viability with Carfilzomib + Alpelisib (first compound 0.03162 µM) is 0.584; with Carfilzomib + Alpelisib (first compound 0.1 µM) it was 0.139; in the assay with Carfilzomib + Phenformin (first compound 0.001 µM), 0.427; in the assay with Carfilzomib + Phenformin (first compound 0.003162 µM), 0.51; with Carfilzomib + Phenformin (first compound 0.01 µM), 0.469; with Carfilzomib + Phenformin (first compound 0.03162 µM) it was 0.302. Besides, the relative viability with Carfilzomib + Phenformin (first compound 0.1 µM) amounted to 0.167.

For the cell line LCLC-103H, the relative viability amounted to 0.469 with Crizotinib + Palbociclib (first compound 0.01 µM); 0.435 with Crizotinib + Palbociclib (first compound 0.03162 µM); 0.438 in the assay with Crizotinib + Palbociclib (first compound 0.1 µM); 0.471 with Crizotinib + Palbociclib (first compound 0.3162 µM); 0.508 in the assay with Crizotinib + Palbociclib (first compound 1 µM); 1 in the assay with Olaparib + Alpelisib (first compound 0.08 µM). Further, the relative viability came to 0.928 with Olaparib + Alpelisib (first compound 0.253 µM); 1.09 in the assay with Olaparib + Alpelisib (first compound 2.53 µM); 0.923 with Olaparib + Alpelisib (first compound 8 µM); 0.972 in the assay with Carfilzomib + Alpelisib (first compound 0.001 µM); 1.01 with Carfilzomib + Alpelisib (first compound 0.003162 µM); 0.99 in the assay with Carfilzomib + Alpelisib (first compound 0.01 µM). Moreover, the relative viability came to 0.671 in the assay with Carfilzomib + Alpelisib (first compound 0.03162 µM); 0.195 in the assay with Carfilzomib + Alpelisib (first compound 0.1 µM); 0.328 with Carfilzomib + Phenformin (first compound 0.001 µM); 0.327 in the assay with Carfilzomib + Phenformin (first compound 0.003162 µM); 0.297 in the assay with Carfilzomib + Phenformin (first compound 0.01 µM); 0.285 in the assay with Carfilzomib + Phenformin (first compound 0.03162 µM). For the same cell line, in the assay with Carfilzomib + Phenformin (first compound 0.1 µM), the relative viability turned out to be 0.17.
